Data as given in patent US5178662A, “Benzaldehyde acetal compounds, preparation process thereof, and herbicidal compositions containing the same as active ingredients” (Mitsui Toatsu Chemicals, Inc., priority 1990, dated 1993).

Key:
[1] = system: Crabgrass (Digitaria adscendens); assay: Upland soil application test, large crabgrass; assay type: in vivo; settings: 1200 h, soil application one day after seeding, 50 g ai/a, wettable powder, fresh weight on 50th day after spray, read-out: Herbicidal effects Crabgrass (Digitaria adscendens)
Experimental: (§1) Resin-made 1/1000-are pots were filled with the soil of an upland field. After they were fertilized, cotton and soybean were seeded and 3 cm soil covering was applied. In addition, amaranth, common lambs-quarters, barnyardgrass, green foxtail, large crabgrass and johnsongrass were seeded and 1 cm soil covering was applied. One day later, a wettable powder prepared from a predetermined amount of each test compound in a similar manner to the procedures described in Formulation Example 1 was diluted with water and then sprayed evenly at an application rate equal to 10 l per are onto the surface of the soil by means of a pressure-operated sprayer. The weeds and crops were allowed to grow in a green house and influence to them were observed on the 50th day after the spray. The degree of damages of each test plant and the degree of injury to each crop were determined by measuring fresh weight in each group and indicated by % calculated according to the following formula. [formula]

Johnsongrass [2] = assay: Upland foliar application test, johnsongrass; assay type: in vivo; settings: Sorghum halepense, 960 h; foliar application at stage of 2-3 leaves, 50 g ai/a, emulsion, 40th day after spray; read-out: Herbicidal effects Johnsongrass
Experimental: (§2) Resin-made 1/1000-are pots were filled with the soil of an upland field. After they were fertilized, cotton and soybean were seeded and 3 cm soil covering was applied. Five days later, amaranth, common lambsquarters, barnyardgrass, green foxtail, large crabgrass and johnsongrass were seeded and 1 cm soil covering was applied. They were allowed to grow in a green house. When each plant grew to the stage of 2-3 leaves, an emulsion formulated from a predetermined amount of each test compound in a similar manner to the procedures described in Formulation Example 11 was diluted with water and then sprayed at a predetermined application rate by means of a pressure-operated sprayer. The application rate was controlled at 5 l per are. Influence to the crops and weeds were observed on the 40th day after the spray of the herbicides. The results are shown in Table 4 in which the degree of damages of each test plant and the degree of injury to each crop are shown in a similar manner to Test 2.

common lambsquarters [3] = assay: Upland foliar application test, common lambsquarters; assay type: in vivo; settings: Chenopodium album, 960 h; foliar application at stage of 2-3 leaves, 50 g ai/a, emulsion, 40th day after spray; read-out: Herbicidal effects Common lambquarters
Experimental: as §2

[4] = system: Cotton (Gossypium indicum); assay: Upland soil application test, crop injury cotton; assay type: in vivo; settings: soil application one day after seeding, 50 g ai/a, wettable powder, fresh weight on 50th day after spray
Experimental: as §1

[5] = system: Foxtail (Setaria viridis); assay: Upland soil application test, green foxtail; assay type: in vivo; settings: 1200 h, soil application one day after seeding, 50 g ai/a, wettable powder, fresh weight on 50th day after spray, read-out: Herbicidal effects Foxtail (Setaria viridis)
Experimental: as §1

[6] = system: johnsongrass emerging from rhizome; assay: Application test on johnsongrass emerging from rhizome; assay type: in vivo; settings: foliar application at stage of 4-5 leaves, application rate of active ingredient 20 (unit not given), emulsion, 50th day after spray
Experimental: as §1
Resin-made 1/1000-are pots were filled with the soil of an upland field. After they were fertilized, rhizome of johnsongrass were transplanted to the pots and 3 cm soil covering was applied. They were allowed to grow in a green house. When each johnsongrass grew to the stage of 4-5 leaves, an emulsion formulated from a predetermined amount of each test compound in a similar manner to the procedures described in Formulation Example 11 was diluted with water and then sprayed at a predetermined application rate by means of a pressure-operated sprayer. The application rate was controlled at 5 l per are. The effect of each compound against the johnsongrass emerging from its rhizome was observed on the 50th day after the spray of the herbicides. The results are shown in Table 5 in which the herbicidal effect against johnsongrass is shown in a similar manner to Test 2.

Johnsongrass [7] = assay: Upland soil application test, johnsongrass; assay type: in vivo; settings: Sorghum halepense, 1200 h; soil application one day after seeding, 50 g ai/a, wettable powder, fresh weight on 50th day after spray; read-out: Herbicidal effects Johnsongrass
Experimental: as §1

[8] = system: Amaranth (Amaranthus viridis); assay: Upland soil application test, amaranth; assay type: in vivo; settings: 1200 h, soil application one day after seeding, 50 g ai/a, wettable powder, fresh weight on 50th day after spray, read-out: Herbicidal effects Amaranth (Amaranthus viridis)
Experimental: as §1

common lambsquarters [9] = assay: Upland soil application test, common lambsquarters; assay type: in vivo; settings: Chenopodium album, 1200 h; soil application one day after seeding, 50 g ai/a, wettable powder, fresh weight on 50th day after spray; read-out: Herbicidal effects Common lambquarters
Experimental: as §1

[10] = system: ALS (acetolactate syntase) from pea seedlings; assay: ALS (acetolactate syntase) inhibition test, pea enzyme; assay type: biochemical; settings: 10,000 ppm (0.5 μg/0.5 ml) of compound; 1 hour at 30° C.; absorbance at 525 nm
Experimental: (§3) To determine the selectivity in enzyme level between crops and weeds, an ALS inhibition test was conducted using pea as a typical broadleaf crop and barnyardgrass as a representative gramineous weeds.
(§4) After seeds of pea and barnyardgrass were allowed to germinate at 25° C. for 8-14 days in a dark place, partially-purified suspensions (Suspensions A) of acetolactate syntase were separately obtained from the seedlings in accordance with the procedures described in the literature, Plant Physiology, 75, 827-831. In a test tube, 0.5 mg of one of test compounds was weighed, followed by the addition of 0.15 ml of a 20 mM K2 HPO4 solution and 0.25 ml of a reaction substrate medium which consisted of 40 mM of K2 HPO4, 40 mM of sodium pyruvate, 1 mM of TPP, 1 mM of MgCl2 and 20 μM of FAD so that 0.4 ml of a reaction solution (Solution B) was prepared. Added to 0.4 ml of Solution B was 0.1 ml of Suspension A. After the resultant mixture was shaken for 1 hour in a thermostat water bath controlled at 30° C., 50 μl of 6N sulfuric acid were added to terminate the reaction.
(§5) Next, the test tube with the reaction-terminated liquid mixture contained therein was transferred into a thermostat water bath controlled at 60° C. and was heated for 15 minutes. Thereafter, 0.5 ml of a 0.5% creatine solution and 0.5 ml of a 5% alkaline α-naphthol solution were added, and the resultant mixture was maintained at 60° C. for 15 minutes. As a result, the test solution developed a pink-to-red color. After the above operation, the absorbance of the test solution at 525 nm was measured by a spectrophotometer (Absorbance 1 of Test Compound).
(§6) Further, the absorbance (Absorbance 2 of Blank) of a solution obtained by subjecting a portion of Solution B to the above procedures without addition of any test compound and the absorbance (Absorbance 3 of sulfuric acid) of another solution obtained by subjecting another portion of Solution B to the above procedures which using 50 μl of 6N sulfuric acid as a test compound were also measured.

[11] = system: ALS (acetolactate syntase) from barnyardgrass seedlings; assay: ALS (acetolactate syntase) inhibition test, barnyardgrass enzyme; assay type: biochemical; settings: 10,000 ppm (0.5 μg/0.5 ml) of compound; 1 hour at 30° C.; absorbance at 525 nm
Experimental: as §3, §4, §5, §6

Soybean (Glycine max) [12] = assay: Upland foliar application test, crop injury soybean; assay type: in vivo; settings: foliar application at stage of 2-3 leaves, 50 g ai/a, emulsion, 40th day after spray
Experimental: as §2

[13] = system: Barnyardgrass (Echinochloa crusgalli); assay: Upland foliar application test, barnyardgrass; assay type: in vivo; settings: Echinochloa crus-galli, 960 h; foliar application at stage of 2-3 leaves, 50 g ai/a, emulsion, 40th day after spray; read-out: Herbicidal effects Barnyardgrass (Echinochloa crusgalli)
Experimental: as §2

Soybean (Glycine max) [14] = assay: Upland soil application test, crop injury soybean; assay type: in vivo; settings: soil application one day after seeding, 50 g ai/a, wettable powder, fresh weight on 50th day after spray
Experimental: as §1

[15] = system: Cotton (Gossypium indicum); assay: Upland foliar application test, crop injury cotton; assay type: in vivo; settings: foliar application at stage of 2-3 leaves, 50 g ai/a, emulsion, 40th day after spray
Experimental: as §1, §2

[16] = system: Crabgrass (Digitaria adscendens); assay: Upland foliar application test, large crabgrass; assay type: in vivo; settings: 960 h, foliar application at stage of 2-3 leaves, 50 g ai/a, emulsion, 40th day after spray, read-out: Herbicidal effects Crabgrass (Digitaria adscendens)
Experimental: as §1, §2

[17] = system: Amaranth (Amaranthus viridis); assay: Upland foliar application test, amaranth; assay type: in vivo; settings: 960 h, foliar application at stage of 2-3 leaves, 50 g ai/a, emulsion, 40th day after spray, read-out: Herbicidal effects Amaranth (Amaranthus viridis)
Experimental: as §1, §2

[18] = system: Barnyardgrass (Echinochloa crusgalli); assay: Upland soil application test, barnyardgrass; assay type: in vivo; settings: Echinochloa crus-galli, 1200 h; soil application one day after seeding, 50 g ai/a, wettable powder, fresh weight on 50th day after spray; read-out: Herbicidal effects Barnyardgrass (Echinochloa crusgalli)
Experimental: as §1

[19] = system: Foxtail (Setaria viridis); assay: Upland foliar application test, green foxtail; assay type: in vivo; settings: 960 h, foliar application at stage of 2-3 leaves, 50 g ai/a, emulsion, 40th day after spray, read-out: Herbicidal effects Foxtail (Setaria viridis)
Experimental: as §1, §2

Row | SMILES | pest or weed control at 5000 g/ha [1] [%] | pest or weed control at 5000 g/ha (Johnsongrass [2]) [%] | pest or weed control at 5000 g/ha (common lambsquarters [3]) [%] | Crop injury Cotton (Gossypium indicum) [4] [%] | pest or weed control at 5000 g/ha [5] [%] | Herbicidal effect against johnsongrass emerging from rhizome [6] [%] | pest or weed control at 5000 g/ha (Johnsongrass [7]) [%] | pest or weed control at 5000 g/ha [8] [%] | pest or weed control at 5000 g/ha (common lambsquarters [9]) [%] | Enzymoreaction inhibition rate (%) Pea [10] [%] | Enzymoreaction inhibition rate (%) Barnyardgrass [11] [%] | Crop injury Soybean (Glycine max) (Soybean (Glycine max) [12]) [%] | pest or weed control at 5000 g/ha [13] [%] | Crop injury Soybean (Glycine max) (Soybean (Glycine max) [14]) [%] | Crop injury Cotton (Gossypium indicum) [15] [%] | pest or weed control at 5000 g/ha [16] [%] | pest or weed control at 5000 g/ha [17] [%] | pest or weed control at 5000 g/ha [18] [%] | pest or weed control at 5000 g/ha [19] [%]
1 | COC(=O)c1ccccc1Oc1nc(OC)cc(OC)n1 [Comp. Comp'd A, reference compound] | 100 | 100 | 100 | 100 | 100 | 60 | 100 | 100 | 100 | 72 | 73 | 100 | 100 | 100 | 100 | 100 | 100 | 100 | 100
2 | COc1cc(OC)nc(Oc2ccccc2C=O)n1 [Comp. Comp'd B, reference compound] | 100 | 100 | 80 | 100 | 100 | 35 | 100 | 80 | 85 | 92 | 98 | 100 | 100 | 100 | 100 | 100 | 80 | 100 | 100
3 | COc1cc(OC)nc(Oc2ccccc2C(OC)OC)n1 [Comp. Comp'd C, 2-(4,6-dimethoxypyrimidin-2-yloxy)benzaldehyde dimethylacetal, reference compound] | 100 | 100 | 90 | 55 | 100 | 40 | 100 | 80 | 100 | – | – | 40 | 100 | 50 | 50 | 90 | 100 | 100 | 95
4 | CCOC(OCC)c1ccccc1Oc1nc(OC)cc(OC)n1 [Comp. Comp'd D, 2-(4,6-dimethoxypyrimidin-2-yloxy)benzaldehyde diethylacetal, reference compound] | 85 | 100 | 90 | 45 | 100 | 50 | 100 | 100 | 100 | – | – | 35 | 100 | 40 | 35 | 90 | 100 | 100 | 95
5 | COc1cc(OC)nc(Oc2c(Cl)cccc2C(OC)OC)n1 [Comp. Comp'd E, reference compound] | 60 | 30 | 65 | 30 | 60 | 5 | 35 | 45 | 50 | – | – | 30 | 65 | 30 | 30 | 45 | 60 | 55 | 50
